Experimental data from the NIST ThermoML archive (doi:10.1016/j.tca.2005.12.008).

Test: molar heat capacity at constant pressure
Settings: 101.33 kPa, Crystal, Small (less than 1 g) adiabatic calorimetry

O.O=C([O-])[C@H](O)[C@@H](O)CO.O=C([O-])[C@H](O)[C@@H](O)CO.[Cu+2] [copper(II) (2R,3S)-2,3,4-trihydroxybutanoate hydrate]
Settings | molar heat capacity at constant pressure [J/K/mol]
77.95 K | 157.12
78.77 K | 158.43
79.58 K | 159.75
81.05 K | 161.91
83.23 K | 165.7
85.3 K | 168.87
87.33 K | 172.05
89.3 K | 175.55
91.24 K | 178.89
93.14 K | 182.28
95.01 K | 185.29
96.85 K | 188.44
98.65 K | 191.21
100.44 K | 194.62
102.18 K | 197.16
103.92 K | 200.13
105.63 K | 203.01
107.32 K | 205.34
109 K | 207.51
110.66 K | 210.17
112.29 K | 213.09
113.91 K | 215.33
115.53 K | 217.99
117.12 K | 220.64
118.7 K | 222.67
120.28 K | 224.56
121.83 K | 227.52
123.37 K | 230.1
124.9 K | 231.86
127.77 K | 236.46
132.03 K | 242.38
136.29 K | 248.21
140.39 K | 253.18
144.49 K | 258.87
148.5 K | 263.42
152.44 K | 269.25
156.37 K | 273.65
160.22 K | 278.91
163.99 K | 283.6
167.76 K | 289.57
171.53 K | 294.4
175.22 K | 298.81
178.91 K | 303.93
182.51 K | 308.62
186.04 K | 314.59
189.63 K | 319.74
193.17 K | 324.58
196.61 K | 329.37
200.05 K | 333.92
203.48 K | 338.93
206.76 K | 344.03
210.14 K | 349.72
213.41 K | 353.68
216.7 K | 358.82
219.87 K | 365.27
223.07 K | 370.33
226.27 K | 374.9
229.39 K | 380.28
232.43 K | 385.56
235.45 K | 390.94
238.48 K | 396.17
241.43 K | 401.58
244.3 K | 406.42
247.25 K | 410.96
250.17 K | 415.09
253.07 K | 420.05
255.94 K | 424.32
258.81 K | 430.57
261.59 K | 435.83
264.38 K | 439.95
267.25 K | 446.35
269.95 K | 449.9
272.74 K | 455.45
275.44 K | 460.56
278.15 K | 465.27
280.87 K | 471.63
283.46 K | 476.96
286.11 K | 481.85
288.64 K | 486.29
291.26 K | 492.12
293.8 K | 496.38
296.18 K | 501.64
298.72 K | 506.76
301.34 K | 511.59
304.73 K | 517.6
308.01 K | 525.08
311.68 K | 533.37
315.35 K | 539.96
318.3 K | 546.62
321.22 K | 553.21
324.17 K | 560.99
327.09 K | 567.58
330.19 K | 573.7
333.38 K | 581.34
336.12 K | 586.57
338.87 K | 593.18
341.62 K | 602.58
344.26 K | 609.21
346.73 K | 617.4
349.06 K | 625.08
351.28 K | 633.61
353.44 K | 639.41
355.51 K | 652.09
